# Reference: patent US5985879A, “Compounds useful for inhibition of farnesyl protein transferase” (Schering Corporation, priority 1997, dated 1999)
# What was measured:
# [1] = biological target: farnesyl protein transferase (H-ras) (Homo sapiens, UniProt P49354+P49356); assay: FPT IC50 (H-ras), inhibition of farnesyl protein transferase, in vitro enzyme assay; assay type: biochemical
# Description: (§1) FPT IC50 (inhibition of farnesyl protein transferase, in vitro enzyme assay) and COS Cell IC50 (Cell-Based Assay) were determined following the assay procedures described in WO 95/10516, published Apr. 20, 1995. GGPT IC50 (inhibition of geranylgeranyl protein transferase, in vitro enzyme assay), Cell Mat Assay, and anti-tumor activity (in vivo anti-tumor studies) could be determined by the assay procedures described in WO 95/10516. The disclosure of WO 95/10516 is incorporated herein by reference thereto.
# COS Cell = COS Cell IC50 (Cell-Based Assay); details: COS cells
# Description: as §1
# [2] = biological target: farnesyl protein transferase (K-ras) (Homo sapiens, UniProt P49354+P49356); assay: FPT IC50 (K-ras), inhibition of farnesyl protein transferase, in vitro enzyme assay; assay type: biochemical
# Description: as §1
# Human tumor cells = assay: Soft Agar Assay (anchorage-independent growth); assay type: cell-based; details: incubated 10-16 days at 37° C. under 5% CO2, MTT stain
# Description: Anchorage-independent growth is a characteristic of tumorigenic cell lines. Human tumor cells are suspended in growth medium containing 0.3% agarose and an indicated concentration of a farnesyl transferase inhibitor. The solution is overlayed onto growth medium solidified with 0.6% agarose containing the same concentration of farnesyl transferase inhibitor as the top layer. After the top layer is solidified, plates are incubated for 10-16 days at 37° C. under 5% CO2 to allow colony outgrowth. After incubation, the colonies are stained by overlaying the agar with a solution of MTT (3-[4,5-dimethyl-thiazol-2-yl]-2,5-diphenyltetrazolium bromide, Thiazolyl blue) (1 mg/mL in PBS). Colonies can be counted and the IC50 's can be determined.
SMILES,IC50 [1],IC50 (COS Cell),IC50 [2],IC50 (Human tumor cells)
O=C(CC1CCN(c2ccccn2)CC1)N1CCC([C@H]2c3ncc(Br)cc3CCc3cc(Cl)cc(Br)c32)CC1 [Formula 5.0],10.6 nM,39 nM,29 nM,> 500 nM
CC(=O)OC[C@H]1O[C@@H](N2CCC(CC(=O)N3CCC([C@H]4c5ncc(Br)cc5CCc5cc(Cl)cc(Br)c54)CC3)CC2)[C@H](OC(C)=O)[C@@H](OC(C)=O)[C@@H]1OC(C)=O [Formula 9.3],4.6 nM,35 nM,40.9 nM,80 nM
O=C(CC1CCN(c2nc3ccccc3o2)CC1)N1CCC([C@H]2c3ncc(Br)cc3CCc3cc(Cl)cc(Br)c32)CC1 [Formula 4.0],16 nM,120 nM,91 nM,–
O=C(CC1CCN(c2nnnn2-c2ccccc2)CC1)N1CCC([C@H]2c3ncc(Br)cc3CCc3cc(Cl)cc(Br)c32)CC1 [Formula 2.0],31 nM,–,–,–
O=C(CC1CCN(c2nccs2)CC1)N1CCC([C@H]2c3ncc(Br)cc3CCc3cc(Cl)cc(Br)c32)CC1 [Formula 3.0],140 nM,–,–,–
O=C(CC1CCN(c2ncccn2)CC1)N1CCC([C@H]2c3ncc(Br)cc3CCc3cc(Cl)cc(Br)c32)CC1 [Formula 6.0],20 nM,68 nM,–,–
